In patent US11655456B2, “Engineered intestinal tissue and uses thereof” (Organovo, Inc., priority 2016, dated 2023):
Entries after “also recorded” stand apart in the source; their conditions may differ.

Key:
[1] = system: 3D bioprinted intestinal tissue
COX2, IL8, and TNFα = assay: Inflammation gene expression after TNFα treatment of 3D bioprinted intestinal tissue; format: cell-based, human; settings: TNFα high dose, 24 hours
Description: To characterize the 3D bioprinted intestinal model response to inflammation, commonly associated with GI toxicity as well as chronic disease conditions, tissues were treated with a high dose of pro-inflammatory cytokine TNFα for 24 hours and evaluated for changes in morphology, LDH release, and gene expression (FIG. 28).

BCRP = biological target: T1, BCRP (Homo sapiens, UniProt Q9UNQ0)
T1 sequence (Q9UNQ0 1-655): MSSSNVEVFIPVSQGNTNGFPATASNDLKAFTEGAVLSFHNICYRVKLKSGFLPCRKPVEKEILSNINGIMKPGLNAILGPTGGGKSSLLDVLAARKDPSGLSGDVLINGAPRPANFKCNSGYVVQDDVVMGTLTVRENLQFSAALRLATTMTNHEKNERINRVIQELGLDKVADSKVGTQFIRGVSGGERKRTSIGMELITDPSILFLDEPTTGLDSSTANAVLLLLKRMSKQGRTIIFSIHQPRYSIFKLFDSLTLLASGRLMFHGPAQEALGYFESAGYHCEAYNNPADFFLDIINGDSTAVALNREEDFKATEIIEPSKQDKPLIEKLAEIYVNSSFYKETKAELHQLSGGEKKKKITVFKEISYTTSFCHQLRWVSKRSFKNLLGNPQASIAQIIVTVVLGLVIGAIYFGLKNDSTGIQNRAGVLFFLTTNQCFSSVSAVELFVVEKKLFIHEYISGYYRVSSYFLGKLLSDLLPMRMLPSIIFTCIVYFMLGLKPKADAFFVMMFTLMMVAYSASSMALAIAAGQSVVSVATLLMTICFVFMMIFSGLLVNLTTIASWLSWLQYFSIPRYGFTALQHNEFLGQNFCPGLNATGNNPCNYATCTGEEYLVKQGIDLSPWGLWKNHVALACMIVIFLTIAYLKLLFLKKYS
Description: FIGS. 25A-25D show P-gp and BCRP transporter function in 3D bioprinted intestinal tissue.
P-gp and BCRP function were tested in the 3D bioprinted intestinal tissue model by measuring bi-directional transport with and without inhibition (FIG. 25C).

[2] = system: 3D bioprinted intestinal tissue; remark: listed apart in the source
[3] = system: 3D printed tissues and 2D epithelial monolayers of Caco-2/STC-1 cells; assay: Lucifer Yellow permeability (barrier integrity) of 3D printed Caco-2 tissues and 2D monolayers; format: in vitro ADME, human; settings: bioprinted 3D constructs and 2D monolayers (Caco-2/STC-1), later stages of culture
Description: FIG. 5 is a bar graph showing permeability comparison of 2D monolayers and 3D bioprinted Caco-2 tissues measured by Lucifer Yellow. […] Permeability was measured on 3D printed tissues and compared to 2D epithelial monolayers of Caco-2/STC-1 cells and interstitium alone.
Experiment time course studies were run 4, 7, and 14 days post addition of epithelial cells. Tissues were measured for GLP-1 secretion into supernatant. Tissues were also measured for barrier function at multiple time points by TEER or Lucifer yellow (non-lytic assays). After incubation, the tissues were fixed in paraformaldehyde (PFA) for histology or lysed for RNA extraction.

[4] = system: prostaglandin E2 synthesis; assay: Prostaglandin E2 synthesis in 3D bioprinted intestinal tissue; format: cell-based, human; settings: all indomethacin doses tested
[5] = system: 3D bioprinted intestinal tissue; assay: LDH activity / release from 3D bioprinted intestinal tissue after toxicant treatment
[6] = system: 3D bioprinted intestinal tissue; assay: Barrier function (TEER) of 3D bioprinted intestinal tissue after toxicant treatment; settings: 24 hour incubation, varying doses
[7] = system: 3D bioprinted intestinal tissue; settings: higher / increasing doses of indomethacin

Question: How did the barrier function [1] turn out when TNFα was run?
Answer: decreased barrier function

Question: And the “gene expression of COX2, IL8 and TNFα” value (COX2, IL8, and TNFα)?
Answer: upregulated

Question: O=C1c2c(O)ccc(O)c2C(=O)c2c(NCCNCCO)ccc(NCCNCCO)c21 [mitoxantrone] was tested. Which “permeability in the B to A direction compared with A to B” value (BCRP) did it give?
Answer: much higher permeability

Question: Which “permeability in the apical to basal direction” value [2] does the source give for C[C@H]1O[C@@H](O[C@H]2[C@@H](O)C[C@H](O[C@H]3[C@@H](O)C[C@H](O[C@H]4CC[C@@]5(C)[C@H](CC[C@@H]6[C@@H]5C[C@@H](O)[C@]5(C)[C@@H](C7=CC(=O)OC7)CC[C@]65O)C4)O[C@@H]3C)O[C@@H]2C)C[C@H](O)[C@@H]1O [digoxin] here?
Answer: moderate

Question: Which “Lucifer Yellow permeability” value [3] does the source give for Lucifer yellow here?
Answer: < 3%

Question: For CC[C@@]1(O)C(=O)OCc2c1cc1n(c2=O)Cc2cc3c(CN(C)C)c(O)ccc3nc2-1 [topotecan], which efflux ratio (BCRP; control conditions) is on record?
Answer: 8.8

Question: Which results are given for COc1ccc2c(c1)c(CC(=O)O)c(C)n2C(=O)c1ccc(Cl)cc1 [indomethacin]?
Answer: prostaglandin E2 synthesis [4]: decreased to similar levels for all indomethacin doses tested; also recorded: inhibition of prostaglandin E2 synthesis; LDH activity ([5]; 24 hour treatment, increasing indomethacin dose): increased; LDH release ([5]; indomethacin doses above 0.25 mM): significantly increased; barrier function measured by TEER [6]: dose response decrease in TEER; also recorded: dose-dependent decrease in barrier function; also recorded: decreased TEER; E-Cadherin expression (marker of barrier function) [7]: reduction in E-Cadherin; also recorded: decreased expression of E-Cadherin; histology of the epithelium [7]: disruption of the epithelium and distorted nuclear staining; also recorded: increased disruption of the epithelial layer
